How the values were obtained:
[1] = test system: Influenza A virus (A/Puerto Rico/8/1934(H1N1)); test: Inhibition of Influenza A virus A/Puerto Rico/8/1934(H1N1) neuraminidase at 40 ug/ml using MUNANA as substrate measured after 60 mins by fluorescence assay relative to control; details: dose 40.0 µg/ml
[2] = Inhibition of Influenza A virus A/Puerto Rico/8/1934(H1N1) neuraminidase using MUNANA as substrate measured after 60 mins by fluorescence assay

| Structure (SMILES) | inhibition [1] | IC50 [2] |
| --- | --- | --- |
| CCOC(=O)c1sc(/N=C2\NC(=O)CS2)nc1C(F)(F)F | 37% |  |
| CCOC(=O)Cc1csc(/N=C2\NC(=O)/C(=C/c3cccc(OC)c3O)S2)n1 | 93.8% | 33.9 µM |
| CC(C)(C)c1nc(/N=C2\NC(=O)/C(=C/c3cccc([N+](=O)[O-])c3)S2)sc1[N+](=O)[O-] | 52.6% | 48.2 µM |
| COC(=O)c1sc(/N=C2\NC(=O)CS2)nc1C | 73.9% | 53.4 µM |
| CCOC(=O)Cc1csc(/N=C2\NC(=O)CS2)n1 | 26.4% |  |
| CCOC(=O)Cc1csc(/N=C2\NC(=O)/C(=C/c3ccc(OC)c(O)c3)S2)n1 | 82.6% | 28.8 µM |
| CC(C)(C)c1nc(/N=C2\NC(=O)/C(=C/c3ccc([N+](=O)[O-])cc3)S2)sc1[N+](=O)[O-] | 46.1% |  |
| CCOC(=O)c1oc(/N=C2\NC(=O)CS2)nc1C | 34.8% |  |
| CCOC(=O)Cc1csc(/N=C2\NC(=O)/C(=C/c3ccc(O)cc3)S2)n1 | 93.9% | 27.7 µM |
| CCOC(=O)c1sc(/N=C2\NC(=O)/C(=C/c3cccc(C)c3)S2)nc1C | 35.4% |  |
| COc1cccc(/C=C2\S/C(=N/c3nc(C(C)C)c(C(C)=O)s3)NC2=O)c1O | 98.5% | 28.9 µM |
| CCOC(=O)c1sc(/N=C2\NC(=O)/C(=C/c3cc([N+](=O)[O-])cc([N+](=O)[O-])c3O)S2)nc1C | 58.5% | 39.9 µM |
| CCOC(=O)c1sc(/N=C2\NC(=O)/C(=C/c3cccc([N+](=O)[O-])c3)S2)nc1C | 43.5% |  |
| CCOC(=O)c1sc(/N=C2\NC(=O)/C(=C/c3ccccc3)S2)nc1C | 72.4% | 64.2 µM |
| CCOC(=O)c1sc(/N=C2\NC(=O)/C(=C/c3cccc(O)c3)S2)nc1C | 79.5% | 43.6 µM |
| COc1cc(/C=C2\S/C(=N/c3nc(C)c(C(C)=O)s3)NC2=O)ccc1O | 100% | 26.1 µM |
| CCOC(=O)c1sc(/N=C2\NC(=O)CS2)nc1C | 78.4% | 58.8 µM |
| CCOC(=O)c1sc(NC(=N)N)nc1C | -1.32% |  |
| CC(C)(C)c1nc(/N=C2\NC(=O)CS2)sc1-n1ccnc1 | 36.8% |  |
| Cc1nc(/N=C2\NC(=O)CS2)sc1C(=O)O | 63.9% | 97 µM |
| CCOC(=O)Cc1csc(/N=C2\NC(=O)/C(=C/c3ccc(O)c(OC)c3)S2)n1 | 86.2% | 28 µM |
| CCOC(=O)c1sc(/N=C2\NC(=O)/C(=C/c3ccc(C(=O)O)cc3)S2)nc1C | 79.1% | 36.5 µM |
| CCOC(=O)c1sc(/N=C2\NC(=O)/C(=C/c3cccc(N)c3)S2)nc1C | 77.4% | 31.2 µM |
| CC(C)(C)c1nc(/N=C2\NC(=O)CS2)sc1[N+](=O)[O-] | 77.8% | 41.6 µM |

| Structure (SMILES) | inhibition [1] | IC50 [2] |
| --- | --- | --- |
| CC(C)(C)c1nc(/N=C2\NC(=O)/C(=C/c3ccc(O)cc3)S2)sc1[N+](=O)[O-] | 78.3% | 38.8 µM |
| CCOC(=O)Cc1csc(/N=C2\NC(=O)/C(=C/c3cccc(N)c3)S2)n1 | 86.4% | 35.8 µM |
| COc1cccc(/C=C2\S/C(=N/c3nc(C(C)(C)C)c([N+](=O)[O-])s3)NC2=O)c1 | 70.9% | 44.2 µM |
| CCOC(=O)c1sc(/N=C2\NC(=O)/C(=C/c3ccccc3O)S2)nc1C | 91.3% | 28.8 µM |
| CC(C)(C)c1nc(/N=C2\NC(=O)/C(=C/c3ccccc3O)S2)sc1[N+](=O)[O-] | 83.2% | 35.4 µM |
| CC(=O)Nc1ccc(/C=C2\S/C(=N/c3nc(C(C)(C)C)c([N+](=O)[O-])s3)NC2=O)cc1 | 56.7% | 75.8 µM |
| CC(=O)c1sc(/N=C2\NC(=O)/C(=C/c3ccc(O)cc3)S2)nc1C | 106% | 20.5 µM |
| COC(=O)c1sc(/N=C2\NC(=O)CS2)nc1C(C)C | 68% | 33.6 µM |
| CCOC(=O)Cc1nc(/N=C2\NC(=O)/C(=C/c3ccc(O)c(OC)c3)S2)sc1C | 95.9% | 20.3 µM |
| CCOC(=O)c1sc(NC(=S)NC(=O)/C=C/c2ccccc2)nc1C | 23.6% |  |
| CC(=O)c1sc(/N=C2\NC(=O)/C(=C/c3cccc([N+](=O)[O-])c3)S2)nc1C | 80.1% | 70.5 µM |
| CC(=O)c1sc(/N=C2\NC(=O)/C(=C/c3cccc(N)c3)S2)nc1C | 24.3% |  |
| CCOC(=O)c1sc(/N=C2\NC(=O)/C(=C/c3ccc(O)cc3O)S2)nc1C | 75.2% | 28.3 µM |
| COc1cccc(/C=C2\S/C(=N/c3nc(C(C)(C)C)c([N+](=O)[O-])s3)NC2=O)c1O | 57.3% | 55 µM |
| CCOC(=O)c1sc(/N=C2\NC(=O)C(c3ccccc3)S2)nc1C (configuration not stated) | 52.8% | 55.4 µM |
| CCOC(=O)Cc1nc(/N=C2\NC(=O)CS2)sc1C | 43.8% |  |
| CCOC(=O)c1sc(NC(=S)NC(=O)/C=C/c2ccc(O)c(OC)c2)nc1C | 80.7% | 44 µM |
| CCOC(=O)c1sc(/N=C2\NC(=O)C[Se]2)nc1C | 17.9% |  |
| Cc1nc(/N=C2\NC(=O)CS2)sc1C(=O)OC(C)(C)C | 74.4% | 66 µM |
| CCOC(=O)c1sc(/N=C2\NC(=O)/C(=C/c3ccc(O)c(O)c3)S2)nc1C | 91.3% | 27.1 µM |
| CCOC(=O)Cc1csc(/N=C2\NC(=O)/C(=C/c3cccc([N+](=O)[O-])c3)S2)n1 | 51.2% | 46 µM |
| CCOC(=O)c1sc(/N=C2\NC(=O)/C(=C/c3ccc4c(c3)OCO4)S2)nc1C | 45% |  |
| CCOC(=O)c1sc(/N=C2\NC(=O)/C(=C/c3ccc(C(=O)OC)cc3)S2)nc1C | 50.1% | 94 µM |
| CCOC(=O)c1sc(/N=C2\NC(=O)/C(=C/c3ccc(NC(C)=O)cc3)S2)nc1C | 77.8% | 44.1 µM |

| Structure (SMILES) | inhibition [1] | IC50 [2] |
| --- | --- | --- |
| COC(=O)c1sc(/N=C2\NC(=O)/C(=C/c3ccc(O)c(OC)c3)S2)nc1C | 88.2% | 30.4 µM |
| COc1cc(/C=C2\S/C(=N/c3nc(C(C)(C)C)c([N+](=O)[O-])s3)NC2=O)ccc1O | 77.1% | 35.2 µM |
| CCCCC1S/C(=N/c2nc(C)c(C(=O)OCC)s2)NC1=O (configuration not stated) | 52.1% | 65 µM |
| CCOC(=O)c1sc(/N=C2\NC(=O)/C(=C/c3cccc(OC)c3O)S2)nc1C | 91.2% | 19.2 µM |
| CCOC(=O)c1sc(/N=C2\NC(=O)/C(=C/c3cccc(Cl)c3)S2)nc1C | 52% | 78.7 µM |
| CCOC(=O)c1sc(/N=C2\NC(=O)/C(=C/c3ccccc3C(=O)O)S2)nc1C | 47% |  |
| CC(C)(C)c1nc(/N=C2\NC(=O)/C(=C/c3ccccc3C(=O)O)S2)sc1[N+](=O)[O-] | 79.3% | 33 µM |
| CC(=O)c1sc(/N=C2\NC(=O)/C(=C/c3ccc(O)c(O)c3)S2)nc1C | 95.8% | 25.3 µM |
| CC(C)(C)c1nc(/N=C2\NC(=O)/C(=C/c3cccc(F)c3)S2)sc1[N+](=O)[O-] | 62.8% | 32.1 µM |
| CCCc1nc(/N=C2\NC(=O)CS2)sc1C(=O)OC | 37% |  |
| COc1cc(/C=C/C(=O)O)ccc1O [FERULATE] |  | 140 µM |
| CC(=O)c1sc(/N=C2\NC(=O)CS2)nc1C | 79% | 48.7 µM |
| CC(=O)c1sc(/N=C2\NC(=O)/C(=C/c3ccc(C(=O)O)cc3)S2)nc1C | 89.1% | 31.8 µM |
| CC(=O)c1sc(/N=C2\NC(=O)/C(=C/c3ccc4c(c3)OCO4)S2)nc1C | 88.8% | 42.3 µM |
| CC(C)(C)c1nc(/N=C2\NC(=O)/C(=C/c3cccc(Cl)c3)S2)sc1[N+](=O)[O-] | 45.9% |  |
| CC(C)(C)c1csc(/N=C2\NC(=O)CS2)n1 | 38% |  |
| CCOC(=O)c1sc(/N=C2\NC(=O)C(C)S2)nc1C (configuration not stated) | 19.6% |  |
| CCOC(=O)c1sc(/N=C2\NC(=O)/C(=C/c3cccc(OC)c3)S2)nc1C | 59% | 73.1 µM |
| CC(C)(C)c1nc(/N=C2\NC(=O)CS2)sc1Br | 53.4% | 104 µM |
| COc1cc(/C=C2\S/C(=N/c3nc(C(C)C)c(C(C)=O)s3)NC2=O)ccc1O | 97.9% | 23 µM |
| CCOC(=O)Cc1csc(/N=C2\NC(=O)/C(=C/c3ccc(C(=O)O)cc3)S2)n1 | 89.6% | 34.7 µM |
| CCOC(=O)c1sc(/N=C2\NC(=O)/C(=C/c3cccc(F)c3)S2)nc1C | 54.5% | 64.4 µM |
| CC(C)(C)c1nc(/N=C2\NC(=O)CS2)sc1-n1cncn1 | 18.8% |  |

Reference: ChEMBL document CHEMBL4732179, “Design, synthesis, and bioassay of 4-thiazolinone derivatives as influenza neuraminidase inhibitors” (Eur J Med Chem, 2021)
